According to paper PMC7144330, “2-Thiopyrimidine/chalcone hybrids: design, synthesis, ADMET prediction, and anticancer evaluation as STAT3/STAT5a inhibitors” (Journal of Enzyme Inhibition and Medicinal Chemistry, 2020):
Read-outs that look alike come from different tables or passages of the source.

What was measured:
K-562 = assay: MTT cytotoxic assay, leukaemia K-562 cell line; type: cell-based
Protocol: (§1) To investigate cytotoxic activity of the final target compounds 9a–r, MTT assay was performed. Three different cell lines were used, leukaemia (K-562), breast (MCF-7) and colon (HT-29) cell lines. Cisplatin and erlotinib were the reference drugs used in this study.
(§2) All target compounds 9a–r were screened against three different cancer cell lines, leukaemia (K-562), breast (MCF-7), and colon (HT-29). MTT assay was used. Both cisplatin and erlotinib were used as the reference drugs. Cytotoxicity results are recorded in Table 1.

MCF-7 = assay: MTT cytotoxic assay, breast MCF-7 cell line; type: cell-based, human
Protocol: as §1, §2

HT-29 = assay: MTT cytotoxic assay, colon HT-29 cell line; type: cell-based; conditions: read-out: (IC50 μM)±SD HT-29
Protocol: as §1, §2

STAT3 = biological target: T1, STAT3 (Homo sapiens, UniProt P40763); assay: TransAM STAT3 activation assay on nuclear extracts of treated cells; type: cell-based; conditions: 24 h, read-out: Inhibition IC50 (µM) STAT3
T1 construct: endogenous in cells; host or cells: K-562 and MCF-7 cells (nuclear extracts)
Protocol: (§3) Both K-562 and MCF-7 cell lines were seeded overnight in plates, then 10 µM of test compounds (9a and 9r for MCF-7 cells; 9d, 9f, and 9n for K-562 cells) or reference drug pacritinib was added for 24 h. A nuclear extract kit was used to extract nuclear fractions from treated cells using the manufacture’s procedure. STAT3 and STAT5a activations were analysed using the collected nuclear extracts (20 µg) through TransAM STAT3 and STAT5a activation assay guided by the manufacture’s protocol. The obtained results were expressed in the form of mean ± SD. Each experiment was done in triplicate.
(§4) Pacritinib, an inhibitor for both STAT3 and STAT5a[49] was used in this study as a reference drug.

STAT5a = biological target: T2, STAT5a (Homo sapiens, UniProt P42229); assay: TransAM STAT5a activation assay on nuclear extracts of treated cells; type: cell-based; conditions: 24 h, read-out: Inhibition IC50 (µM) STAT5a
T2 construct: endogenous in cells; host or cells: K-562 and MCF-7 cells (nuclear extracts)
T2 sequence (P42229 1-794): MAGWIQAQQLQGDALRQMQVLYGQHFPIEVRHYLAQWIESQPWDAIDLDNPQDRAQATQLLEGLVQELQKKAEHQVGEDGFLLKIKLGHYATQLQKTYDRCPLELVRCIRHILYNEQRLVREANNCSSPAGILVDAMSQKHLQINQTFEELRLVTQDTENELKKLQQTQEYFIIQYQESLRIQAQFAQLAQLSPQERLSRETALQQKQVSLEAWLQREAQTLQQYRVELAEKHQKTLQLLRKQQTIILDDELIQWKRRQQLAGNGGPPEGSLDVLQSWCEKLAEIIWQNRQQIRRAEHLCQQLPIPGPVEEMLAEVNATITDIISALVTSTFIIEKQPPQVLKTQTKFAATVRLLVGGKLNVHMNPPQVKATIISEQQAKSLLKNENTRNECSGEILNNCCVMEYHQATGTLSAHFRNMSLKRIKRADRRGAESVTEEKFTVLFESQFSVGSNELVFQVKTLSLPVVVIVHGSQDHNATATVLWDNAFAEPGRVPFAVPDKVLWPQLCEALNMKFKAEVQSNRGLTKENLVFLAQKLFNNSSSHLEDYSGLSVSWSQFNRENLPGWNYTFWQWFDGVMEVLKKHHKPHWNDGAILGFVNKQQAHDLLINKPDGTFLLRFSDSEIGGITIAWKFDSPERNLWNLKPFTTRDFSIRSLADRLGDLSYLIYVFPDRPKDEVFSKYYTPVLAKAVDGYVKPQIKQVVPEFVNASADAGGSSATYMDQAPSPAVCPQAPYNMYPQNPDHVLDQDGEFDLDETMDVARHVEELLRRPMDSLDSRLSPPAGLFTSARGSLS
Protocol: as §3, §4

in vitro = conditions: human
[1] = Homo sapiens, K562, read-out: (IC50 μM)±SD K-562
[2] = Homo sapiens, MCF7, read-out: (IC50 μM)±SD MCF-7

T1 sequence (P40763 whole entry): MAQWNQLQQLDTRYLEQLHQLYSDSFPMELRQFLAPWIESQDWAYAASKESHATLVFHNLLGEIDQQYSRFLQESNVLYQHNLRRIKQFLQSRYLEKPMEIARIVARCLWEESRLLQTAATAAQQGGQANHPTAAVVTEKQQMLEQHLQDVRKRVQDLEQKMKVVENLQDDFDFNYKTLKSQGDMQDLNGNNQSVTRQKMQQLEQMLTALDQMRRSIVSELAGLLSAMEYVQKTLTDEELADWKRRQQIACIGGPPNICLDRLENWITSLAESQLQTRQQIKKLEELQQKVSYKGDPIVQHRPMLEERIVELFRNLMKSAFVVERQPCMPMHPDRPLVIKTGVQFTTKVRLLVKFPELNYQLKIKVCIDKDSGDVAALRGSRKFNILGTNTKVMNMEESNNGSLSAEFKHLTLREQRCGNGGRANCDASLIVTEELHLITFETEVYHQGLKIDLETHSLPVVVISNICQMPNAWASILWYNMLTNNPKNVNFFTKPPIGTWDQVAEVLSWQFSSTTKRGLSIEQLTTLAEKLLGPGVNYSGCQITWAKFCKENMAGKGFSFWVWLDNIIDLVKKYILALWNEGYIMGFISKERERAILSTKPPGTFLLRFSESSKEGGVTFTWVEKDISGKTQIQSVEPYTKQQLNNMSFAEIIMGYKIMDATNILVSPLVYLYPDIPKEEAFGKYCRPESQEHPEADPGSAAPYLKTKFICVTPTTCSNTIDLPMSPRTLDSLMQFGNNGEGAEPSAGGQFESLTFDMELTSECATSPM

SMILES	IC50 (STAT3; MCF7 cells) [µM]	IC50 (STAT5a; MCF7 cells) [µM]	melting point [°C]	IC50 (in vitro) [µM]	IC50 (STAT3; K562 cells) [µM]	IC50 (STAT5a; K562 cells) [µM]	IC50 (K-562; read-out: (IC50 μM)±SD K-562) [µM]	IC50 (MCF-7; read-out: (IC50 μM)±SD MCF-7) [µM]	IC50 (HT-29) [µM]	IC50 (K-562; [1]) [µM]	IC50 (MCF-7; [2]) [µM]	IC50 (HT-29; Homo sapiens) [µM]
N.N.[Cl][Pt][Cl] [Cisplatin, reference compound]							2.31 ± 0.09	6.62 ± 0.29	1.12 ± 0.06			
COc1ccc(/C=C/C(=O)c2ccc(NC(=O)CSc3nc(-c4ccc(C)cc4)cc(-c4ccc(OC)cc4)n3)cc2)cc1 [Compound 9a, (ZE)-2-[4-(4-Methoxyphenyl)-6-p-tolylpyrimidin-2-ylthio]-N-{4-[3-(4 methoxyphenyl)acryloyl]phenyl}acetamide]	243 ± 9.24	83.8 ± 3.28	226 to 228	17.1						18.4 ± 0.76	3.56 ± 0.14	2.2 ± 0.04
COc1ccc(-c2cc(-c3ccc(C)cc3)nc(SCC(=O)Nc3ccc(C(=O)/C=C/c4ccc(OC)c(OC)c4)cc3)n2)cc1 [Compound 9b, (ZE)-N-{4-[3-(3,4-Dimethoxyphenyl)acryloyl]phenyl}-2-[4-(4-methoxyphenyl)-6-p-tolylpyrimidin-2-ylthio]acetamide]			165 to 167							3.62 ± 0.08	22.4 ± 1.57	16.4 ± 0.76
COc1ccc(-c2cc(-c3ccc(C)cc3)nc(SCC(=O)Nc3ccc(C(=O)/C=C/c4cc(OC)c(OC)c(OC)c4)cc3)n2)cc1 [Compound 9c, (ZE)-2-[4-(4-Methoxyphenyl)-6-p-tolylpyrimidin-2-ylthio]-N-{4-[3-(3,4,5-trimethoxyphenyl)acryloyl]phenyl}acetamide]			195 to 197							11.42 ± 0.04	4.25 ± 0.13	8.7 ± 0.28
COc1ccc(/C=C/C(=O)c2ccc(NC(=O)CSc3nc(-c4ccc(OC)cc4)cc(-c4ccc([N+](=O)[O-])cc4)n3)cc2)cc1 [Compound 9d, (ZE)-2-[4-(4-Methoxyphenyl)-6-(4-nitrophenyl)pyrimidin-2-ylthio]-N-{4-[3-(4-methoxyphenyl)acryloyl]phenyl}acetamide]			183 to 185	29.2 to 40.1	160 ± 4.59	116 ± 4.13				0.77 ± 0.03	14.2 ± 0.74	25.9 ± 1.67
COc1ccc(-c2cc(-c3ccc([N+](=O)[O-])cc3)nc(SCC(=O)Nc3ccc(C(=O)/C=C/c4ccc(OC)c(OC)c4)cc3)n2)cc1 [Compound 9e, (ZE)-N-{4-[3-(3,4-Dimethoxyphenyl)acryloyl]phenyl}-2-[4-(4-methoxyphenyl)-6-(4-nitrophenyl)pyrimidin-2-ylthio]-acetamide]			225 to 227							7.05 ± 0.28	18.7 ± 0.92	7.31 ± 0.36
COc1ccc(-c2cc(-c3ccc([N+](=O)[O-])cc3)nc(SCC(=O)Nc3ccc(C(=O)/C=C/c4cc(OC)c(OC)c(OC)c4)cc3)n2)cc1 [Compound 9f, (ZE)-2-[4-(4-Methoxyphenyl)-6-(4-nitrophenyl)pyrimidin-2-ylthio]-N-{4-[3-(3,4,5-trimethoxyphenyl)acryloyl]phenyl}acetamide]			254 to 256	29.2 to 40.1	245 ± 11.1	77.7 ± 2.91				1.37 ± 0.03	5.77 ± 0.22	9.41 ± 0.43
COc1ccc(/C=C/C(=O)c2ccc(NC(=O)CSc3nc(-c4ccc(OC)cc4)cc(-c4ccc(OCCCl)cc4)n3)cc2)cc1 [Compound 9g, (ZE)-2-{4-[4-(2-Chloroethoxy)phenyl]-6-(4-methoxyphenyl)pyrimidin-2-ylthio}-N-{4-[3-(4-methoxyphenyl)acryloyl]phenyl}acetamide]			280 to 282							3.17 ± 0.11	10.4 ± 0.64	10.6 ± 0.47
COc1ccc(-c2cc(-c3ccc(OCCCl)cc3)nc(SCC(=O)Nc3ccc(C(=O)/C=C/c4ccc(OC)c(OC)c4)cc3)n2)cc1 [Compound 9h, (ZE)-2-{4-[4-(2-Chloroethoxy)phenyl]-6-(4-methoxyphenyl)pyrimidin-2-ylthio}-N-{4-[3-(3,4-dimethoxyphenyl)acryloyl]phenyl}acetamide]			135 to 137							7.07 ± 0.31	7.7 ± 0.32	18.8 ± 0.88
COc1ccc(-c2cc(-c3ccc(OCCCl)cc3)nc(SCC(=O)Nc3ccc(C(=O)/C=C/c4cc(OC)c(OC)c(OC)c4)cc3)n2)cc1 [Compound 9i, (ZE)-2-{4-[4-(2-Chloroethoxy)phenyl]-6-(4-methoxyphenyl)pyrimidin-2-ylthio}-N-{4-[3-(3,4,5-trimethoxyphenyl)acryloyl]phenyl}acetamide]			116 to 118							9.71 ± 0.41	11.5 ± 0.81	11.5 ± 0.23
C#Cc1cccc(Nc2ncnc3cc(OCCOC)c(OCCOC)cc23)c1 [Erlotinib, reference compound]										9.85 ± 0.51	10.6 ± 0.58	9.2 ± 0.41

More lines, main results first:

IC50 (STAT3; MCF7 cells) [µM]	IC50 (STAT5a; MCF7 cells) [µM]	melting point [°C]	IC50 (in vitro) [µM]	IC50 (STAT3; K562 cells) [µM]	IC50 (STAT5a; K562 cells) [µM]	SMILES	IC50 (K-562; read-out: (IC50 μM)±SD K-562) [µM]	IC50 (MCF-7; read-out: (IC50 μM)±SD MCF-7) [µM]	IC50 (HT-29) [µM]	IC50 (K-562; [1]) [µM]	IC50 (MCF-7; [2]) [µM]	IC50 (HT-29; Homo sapiens) [µM]
		242 to 244				COc1ccc(/C=C/C(=O)c2ccc(NC(=O)CSc3nc(-c4ccc(C)cc4)cc(-c4ccc(Cl)cc4)n3)cc2)cc1 [Compound 9j, (ZE)-2-[4-(4-Chlorophenyl)-6-p-tolylpyrimidin-2-ylthio]-N-{4-[3-(4-methoxyphenyl)acryloyl]phenyl}acetamide]				4.26 ± 0.06	6.26 ± 0.24	6.26 ± 0.34
		144 to 146				COc1ccc(/C=C/C(=O)c2ccc(NC(=O)CSc3nc(-c4ccc(C)cc4)cc(-c4ccc(Cl)cc4)n3)cc2)cc1OC [Compound 9k, (ZE)-2-[4-(4-Chlorophenyl)-6-p-tolylpyrimidin-2-ylthio]-N-{4-[3-(3,4-dimethoxyphenyl)acryloyl]phenyl}acetamide]				9.95 ± 0.29	28.7 ± 1.39	5.61 ± 0.18
		234 to 236				COc1cc(/C=C/C(=O)c2ccc(NC(=O)CSc3nc(-c4ccc(C)cc4)cc(-c4ccc(Cl)cc4)n3)cc2)cc(OC)c1OC [Compound 9l, (ZE)-2-[4-(4-Chlorophenyl)-6-p-tolylpyrimidin-2-ylthio]-N-{4-[3-(3,4,5-trimethoxyphenyl)acryloyl]phenyl}acetamide]				42.6 ± 1.99	13.5 ± 0.62	2.37 ± 0.07
		190 to 192				COc1ccc(/C=C/C(=O)c2ccc(NC(=O)CSc3nc(-c4ccc(Cl)cc4)cc(-c4ccc([N+](=O)[O-])cc4)n3)cc2)cc1 [Compound 9m, (ZE)-2-[4-(4-Chlorophenyl)-6-(4-nitrophenyl)pyrimidin-2-ylthio]-N-{4-[3-(4-methoxyphenyl)acryloyl]phenyl}acetamide]				3.86 ± 0.14	3.9 ± 0.09	7.9 ± 0.22
		268 to 270				COc1cc(/C=C/C(=O)c2ccc(NC(=O)CSc3nc(-c4ccc(Cl)cc4)cc(-c4ccc([N+](=O)[O-])cc4)n3)cc2)cc(OC)c1OC [Compound 9o, (ZE)-2-[4-(4-Chlorophenyl)-6-(4-nitrophenyl)pyrimidin-2-ylthio]-N-{4-[3-(3,4,5-trimethoxyphenyl)acryloyl]phenyl}acetamide]				12.3 ± 0.72	3.62 ± 0.084	3.62 ± 0.08
		136 to 138				COc1ccc(/C=C/C(=O)c2ccc(NC(=O)CSc3nc(-c4ccc(Cl)cc4)cc(-c4ccc(OCCCl)cc4)n3)cc2)cc1 [Compound 9p]				1.74 ± 0.04	11.6 ± 0.49	11.6 ± 0.63
		210 to 212				COc1ccc(/C=C/C(=O)c2ccc(NC(=O)CSc3nc(-c4ccc(Cl)cc4)cc(-c4ccc(OCCCl)cc4)n3)cc2)cc1OC [Compound 9q]				5.77 ± 0.16	6.81 ± 0.25	6.06 ± 0.29
79.5 ± 2.17	54.4 ± 1.09			65.5 ± 2.55	69.8 ± 1.82	C1=C/COCc2cc(ccc2OCCN2CCCC2)Nc2nccc(n2)-c2cccc(c2)COC/1 [Pacritinib, reference compound]						
